Measurements: patent US20100075361A1, “METHODS OF GENERATING FLORESCENCE RESONANCE ENERGY TRANSFER (FRET) BETWEEN SEMICONDUCTOR QUANTUM DOTS AND FLUORESCENT DYES/PROTEINS VIA MULTI-PHOTON EXCITATION, ACHIEVING ZERO BACKGROUND OR DIRECT EXCITATION CONTRIBUTIONS TO THE FRET SIGNATURE” (Government of the United States of America the Secretary of …, priority 2008, published 2010)

Experiments:
[1] = Two-photon action cross-section measurement, fluorescein as standard; type: physicochemical; conditions: Water, 800 nm
From the text: Steady-state composite spectra collected from samples under two-photon excitation were deconvoluted to yield individual photoluminence (PL) contributions using the known spectral profiles of isolated QDs and Cy3 dye emissions (see FIG. 4A, FIG. 4B, FIG. 4C and FIG. 4D).
Table 1 contains data describing two-photon action cross-sections for QDs populations in water and toluene, characterized using fluorescein as a standard in aqueous buffer (φσ2p=36 GM at 800 nm and pH 13), Cy3, fluorescein and wild-type green fluorescent protein (GFP) (from reference 28). Although multi-photon absorption profiles are non-linear optical phenomena, the longer wavelength emitting QD populations show higher two-photon action cross-sections, consistent with the one-photon absorption behavior.

HEK 293T/17 cells = experiment: Two-photon / one-photon fluorescence microscopy of cells incubated with QD-peptide conjugates; type: cell-based, human; conditions: two-photon excitation, 840 nm
From the text: In the first exemplary embodiment, in regard to quantum dot peptide conjugates, cell penetrating peptide (CPP) was synthesized by Boc-solid phase peptide synthesis with the sequence (His)8-Trp-Gly-Leu-Ala-Aib-Ser-Gly-(Arg)8-amide, where Aib is the artificial residue alpha-amino isobutyric acid. The Cy3-labeled peptide was synthesized with the sequence, Ac-(His)6-Gly-Leu-Aib-[…]NH2, where Ac is an acetyl group at the N-terminus. This peptide was labeled with a maleimide-functionalized Cy3 at the cysteine residue. The polyhistidine sequences at the N-termini of the peptides allowed and/or caused their self-assembly on the QD surface. […]
Exemplary embodiments show a unique advantage of two-photon excitation to probe energy transfer between QDs and conjugated dye acceptors, while investigating the stability of self-assembled QD-peptide conjugates within cells using fluorescence microscopy. […]
Further, in the first exemplary embodiment, in regard to cell imaging, two-photon cell imaging is performed with a BIO-RAD MRC-1024 MP confocal system using ˜10 mW of 840 nm pulsed excitation (˜80 fs, 80 MHz) at the focal plane of a 60×, 0.9 NA water immersion objective microscope. […] DAPI fluorescence cross-talk was subtracted from the QD channel. […]

Two-photon action cross-section [1] | Substance | Cy3 fluorescence / FRET from QDs to Cy3 in cells (HEK 293T/17 cells)
<1 GM | Cy3 | –
– | Tf-Cy3: Cy3-labeled transferrin, endosomal marker, mixed with unlabeled CPP-QD, not bound to QDs | does not show any evidence of Cy3 fluorescence
